According to patent publication US20110053925A1, “Hydroxamate-Based Inhibitors of Deacetylases” (Novartis AG, priority 2009, published 2011):

Assays:
[1] = biological target: T1, HDAC-1 (Homo sapiens, UniProt Q13547); assay: HDAC Inhibition Assay (purified GST-HDAC protein); format: biochemical
T1 construct: made in house; host or cells: Sf9 or Sf21 insect cells (baculovirus, donor vector pFB-GSTX3)
Excerpt: The baculovirus donor vector pFB-GSTX3 is used to generate a recombinant baculovirus that can express the HDAC polypeptide. Transfer vectors containing the HDAC coding region are transfected into the DH10Bac cell line (GIBCO) and plated on selective agar plates. Colonies without insertion of the fusion sequence into the viral genome (carried by the bacteria) are blue. Single, white colonies are picked and viral DNAs (bacmid) are isolated from the bacteria by standard plasmid purification procedures. Sf9 cells or Sf21 (American Type Culture Collection) cells are then transfected in […] flasks with the viral DNA using Cellfectin reagent.
Virus-containing media is collected from the transfected cell culture and used for infection to increase its titer. Virus-containing media obtained after two rounds of infection is used for large-scale protein expression. For large-scale protein expression 100 cm^2 round tissue culture plates are seeded with 5×10^7 cells/plate and infected with 1 mL of virus-containing media (at an approximately MOI of 5). After 3 days, the cells are scraped off the plate and centrifuged at 500 rpm for 5 minutes. Cell pellets from 10-20, 100 cm^2 plates, are re-suspended in 50 mL of ice-cold lysis buffer (25 mM tris-HCl, pH 7.5, 2 mM EDTA, 1% NP-40, 1 mM DTT, 1 mM P MSF). The cells are stirred on ice for 15 minutes and then centrifuged at 5,000 rpms for 20 minutes.
The centrifuged cell lysate is loaded onto a 2 mL glutathione-sepharose column (Pharmacia) and is washed thrice with 10 mL of 25 mM tris-HCl, pH 7.5, 2 mM EDTA, 1 mM DTT, 200 mM NaCl. The GST-tagged proteins are then eluted by 10 applications (1 mL each) of 25 mM tris-HCl, pH 7.5, 10 mM reduced-glutathione, 100 mM NaCl, 1 mM DTT, 10% glycerol and stored at −70° C.
HDAC assays with purified GST-HDAC protein are carried out in a final volume of 30 μL containing 15 ng of GST-HDAC protein, 20 mM tris-HCl, pH 7.5, 1 mM MnCl2, 10 mM MgCl2, 1 mM DTT, 3 μg/mL poly(Glu,Tyr) 4:1, 1% DMSO, 2.0 μM ATP (γ-[^33P]-ATP 0.1 μCi). The activity is assayed in the presence or absence of inhibitors. […] Subsequently, […] of the reaction mixture are transferred onto EMMOBILON-PVDF membrane (Millipore) previously soaked for 5 minutes with methanol, rinsed with water, then soaked for 5 minutes with 0.5% H3PO4 and mounted on vacuum manifold with disconnected vacuum source. After spotting all samples, a vacuum is connected and each well rinsed with 200 μL 0.5% H3PO4. Membranes are removed and washed four times on a shaker with 1.0% H3PO4, once with ethanol. Membranes are counted after drying at ambient temperature, mounting in Packard TopCount 96-well frame, and addition of 10 μL/well of MICROSCINT™ (Packard).
• Input: 3×4 μL stopped assay on IMMOBILON membrane, not washed • Background (3 wells): assay with H2O instead of enzyme • Positive control (4 wells): 3% DMSO instead of compound • Bath control (1 well): no reaction mix
In each experiment, the actual inhibition by reference compound is used for normalization of IC50 values to the basis of an average value of the reference inhibitor:
Normalized IC50=measured IC50 average ref. IC50/measured ref. IC50

[2] = tested on: HCT116; assay: HCT116 IC50; format: cell-based; settings: Homo sapiens, HCT-116

T1 sequence (Q13547 whole entry, species assumed): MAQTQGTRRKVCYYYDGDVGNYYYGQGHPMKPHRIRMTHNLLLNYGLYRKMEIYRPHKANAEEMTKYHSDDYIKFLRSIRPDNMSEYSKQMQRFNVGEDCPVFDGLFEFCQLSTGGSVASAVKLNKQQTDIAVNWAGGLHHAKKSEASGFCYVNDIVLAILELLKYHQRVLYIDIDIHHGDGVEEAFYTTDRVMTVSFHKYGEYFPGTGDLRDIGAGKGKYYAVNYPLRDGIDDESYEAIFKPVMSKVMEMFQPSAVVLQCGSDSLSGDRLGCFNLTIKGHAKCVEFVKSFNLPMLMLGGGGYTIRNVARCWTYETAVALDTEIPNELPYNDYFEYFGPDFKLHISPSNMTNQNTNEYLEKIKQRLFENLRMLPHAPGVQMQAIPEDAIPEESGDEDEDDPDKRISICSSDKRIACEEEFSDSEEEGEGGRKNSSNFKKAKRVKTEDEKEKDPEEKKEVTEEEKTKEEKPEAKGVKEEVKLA

SMILES	IC50 [1]	IC50 [2]
O=C(/C=C/c1ccc(CN2CCCC(c3c[nH]c4ccccc34)C2)cc1)NO (stereo not drawn) [Compound 2, (E)-N-Hydroxy-3-{4-[3-(1H-indol-3-yl)-piperidin-1-ylmethyl]-phenyl}-acrylamide]	0.009 µM	0.032 µM
O=C(/C=C/c1ccc(CN2CCCC(c3c(-c4ccccc4)[nH]c4ccccc34)C2)cc1)NO (stereo not drawn) [Compound 5, (E)-N-Hydroxy-3-{4-[3-(2-phenyl-1H-indol-3-yl)-piperidin-1-ylmethyl]-phenyl}-acrylamide]	0.006 µM	0.0021 µM
CC(C)(C)c1[nH]c2ccccc2c1C1=CCCN(Cc2ccc(/C=C/C(=O)NO)cc2)C1 [Compound 7, (E)-3-{4-[5-(2-tert-Butyl-1H-indol-3-yl)-3,6-dihydro-2H-pyridin-1-ylmethyl]-phenyl}-N-hydroxy-acrylamide]	0.009 µM	0.012 µM
CC(C)(C)c1[nH]c2ccccc2c1C1CCCN(Cc2ccc(/C=C/C(=O)NO)cc2Cl)C1 (stereo not drawn) [Compound 12, (E)-3-{4-[3-(2-tert-Butyl-1H-indol-3-yl)-piperidin-1-ylmethyl]-3-chloro-phenyl}-N-hydroxy-acrylamide]	0.019 µM	0.005 µM
CC(C)(O)c1[nH]c2ccccc2c1C1CCCN(Cc2ccc(/C=C/C(=O)NO)cc2F)C1 (stereo not drawn) [Compound 13, (E)-3-(3-Fluoro-4-{3-[2-(1-hydroxy-1-methyl-ethyl)-1H-indol-3-yl]-piperidin-1-ylmethyl}-phenyl)-N-hydroxy-acrylamide]	0.006 µM	0.0028 µM
O=C(/C=C/c1ccc(CN2CCCC(c3c(-c4ccccc4)[nH]c4ccccc34)C2)c(F)c1)NO (stereo not drawn) [Compound 15, (E)-3-{3-Fluoro-4-[3-(2-phenyl-1H-indol-3-yl)-piperidin-1-ylmethyl]-phenyl}-N-hydroxy-acrylamide]	0.011 µM	0.0052 µM
CCOC(=O)c1[nH]c2ccccc2c1C1CCCN(Cc2ccc(/C=C/C(=O)NO)cc2F)C1 (stereo not drawn) [Compound 17, 3-{1-[2-Fluoro-4-((E)-2-hydroxycarbamoyl-vinyl)-benzyl]-piperidin-3-yl}-1H-indole-2-carboxylic acid ethyl ester]	0.044 µM	0.014 µM
O=C(/C=C/c1ccc(CN2CCCC(c3c(C(=O)NO)[nH]c4ccccc34)C2)c(F)c1)NO (stereo not drawn) [Compound 18, 3-{1-[2-Fluoro-4-((E)-2-hydroxycarbamoyl-vinyl)-benzyl]-piperidin-3-yl}-1H-indole-2-carboxylic acid hydroxyamide]	0.031 µM	0.037 µM
O=C(/C=C/c1ccc(CN2CCCC(c3c(C(=O)N4CCOCC4)[nH]c4ccccc34)C2)c(F)c1)NO (stereo not drawn) [Compound 19, (E)-3-(3-Fluoro-4-{3-[2-(morpholine-4-carbonyl)-1H-indol-3-yl]-piperidin-1-ylmethyl}-phenyl)-N-hydroxy-acrylamide]	0.022 µM	0.5 µM
Cc1[nH]c2ccc(N3CCOCC3)cc2c1C1CCCN(Cc2ccc(/C=C/C(=O)NO)cc2)C1 (stereo not drawn) [Compound 20, (E)-N-Hydroxy-3-{4-[3-(2-methyl-5-morpholin-4-yl-1H-indol-3-yl)-piperidin-1-ylmethyl]-phenyl}-acrylamide]	0.007 µM	0.013 µM
CC(C)c1[nH]c2ccccc2c1C1CCCN(Cc2ccc(CCC(=O)NO)cc2F)C1 (stereo not drawn) [Compound 21, 3-{3-Fluoro-4-[3-(2-isopropyl-1H-indol-3-yl)-piperidin-1-ylmethyl]-phenyl}-N-hydroxy-propionamide]	0.006 µM	0.021 µM
O=C(/C=C/c1ccc(CN2CCOC(c3cc(-c4ccccc4)no3)C2)cc1)NO (stereo not drawn) [Compound 24, (E)-N-Hydroxy-3-{4-[2-(3-phenyl-isoxazol-5-yl)-morpholin-4-ylmethyl]-phenyl}-acrylamide]	0.032 µM	0.47 µM
O=C(/C=C/c1ccc(CN2CCN(S(=O)(=O)c3ccccc3)c3ccccc32)cc1)NO [Compound 58, (E)-3-[4-(4-Benzenesulfonyl-3,4-dihydro-2H-quinoxalin-1-ylmethyl)-phenyl]-N-hydroxy-acrylamide]	0.29 µM	
O=C(/C=C/c1ccc(CN2CCN(C(=O)Nc3ccccc3)c3ccccc32)cc1)NO [Compound 59, 4-[4-((E)-2-Hydroxycarbamoyl-vinyl)-benzyl]-3,4-dihydro-2H-quinoxaline-1-carboxylic acid phenylamide]	0.32 µM	
O=C(/C=C/c1ccc(CN2CCN(C(=O)C3CCCCC3)c3ccccc32)cc1)NO [Compound 60, (E)-3-[4-(4-Cyclohexanecarbonyl-3,4-dihydro-2H-quinoxalin-1-ylmethyl)-phenyl]-N-hydroxy-acrylamide]	0.22 µM	
O=C(/C=C/c1ccc(CN2CCN(C(=O)NCc3ccccc3)c3ccccc32)cc1)NO [Compound 61, 4-[4-((E)-2-Hydroxycarbamoyl-vinyl)-benzyl]-3,4-dihydro-2H-quinoxaline-l-carboxylic acid benzylamide]	0.25 µM	

Now from value to molecule:

IC50 [1]	IC50 [2]	SMILES
0.006 µM	0.012 µM	Cc1[nH]c2ccccc2c1[C@H]1CCCN(Cc2ccc(/C=C/C(=O)NO)cc2)C1 [Compound 3, (E)-N-Hydroxy-3-{4-[(R)-3-(2-methyl-1H-indol-3-yl)-piperidin-1-ylmethyl]-phenyl}-acrylamide]
0.011 µM	0.013 µM	Cc1[nH]c2ccc(N3CCOCC3)cc2c1C1CCCN(Cc2ccc(/C=C/C(=O)NO)cc2F)C1 (stereo not drawn) [Compound 4, (E)-3-{3-Fluoro-4-[3-(2-methyl-5-morpholin-4-yl-1H-indol-3-yl)-piperidin-1-ylmethyl]-phenyl}-N-hydroxy-acrylamide]
0.003 µM	0.0003 µM	CC(C)(C)c1[nH]c2ccccc2c1C1CCCN(Cc2ccc(/C=C/C(=O)NO)cc2)C1 (stereo not drawn) [Compound 6, (E)-3-{4-[3-(2-tert-Butyl-1H-indol-3-yl)-piperidin-1-ylmethyl]-phenyl}-N-hydroxy-acrylamide]
0.017 µM	0.3 µM	Cc1[nH]c2ccccc2c1C1C/C(=N/O)CN(Cc2ccc(/C=C/C(=O)NO)cc2)C1 (stereo not drawn) [Compound 8, (E)-N-Hydroxy-3-{4-[3-[(Z)-hydroxyimino]-5-(2-methyl-1H-indol-3-yl)-piperidin-1-ylmethyl]-phenyl}-acrylamide]
0.008 µM	0.048 µM	O=C(/C=C/c1ccc(CN2CCCC(C3C(=O)Nc4ccccc43)C2)cc1)NO (stereo not drawn) [Compound 9, (E)-N-Hydroxy-3-{4-[3-(2-oxo-2,3-dihydro-1H-indol-3-yl)-piperidin-1-ylmethyl]-phenyl}-acrylamide]
	0.0008 µM	CC(C)(C)c1[nH]c2ccccc2c1[C@@H]1CCCN(Cc2ccc(/C=C/C(=O)NO)cc2F)C1 [Compound 11, (E)-3-{4-[(S)-3-(2-tert-Butyl-1H-indol-3-yl)-piperidin-1-ylmethyl]-3-fluoro-phenyl}-N-hydroxy-acrylamide]
0.007 µM	0.006 µM	C=C(C)c1[nH]c2ccccc2c1C1CCCN(Cc2ccc(/C=C/C(=O)NO)cc2F)C1 (stereo not drawn) [Compound 14, (E)-3-{3-Fluoro-4-[3-(2-isopropenyl-1H-indol-3-yl)-piperidin-1-ylmethyl]-phenyl}-N-hydroxy-acrylamide]
0.26 µM		O=C(/C=C/c1ccc(CN2CCN(S(=O)(=O)c3ccc(F)cc3)CC2)cc1)NO [Compound 57, (E)-3-{4-[4-(4-Fluoro-benzenesulfonyl)-piperazin-1-ylmethyl]-phenyl}-N-hydroxy-acrylamide]
